Data set [1] concerns the target T1, Asialoglycoprotein receptor (ASGP-R) (Homo sapiens, UniProt P07306+P07307).
T1 sequence (P07306 1-291): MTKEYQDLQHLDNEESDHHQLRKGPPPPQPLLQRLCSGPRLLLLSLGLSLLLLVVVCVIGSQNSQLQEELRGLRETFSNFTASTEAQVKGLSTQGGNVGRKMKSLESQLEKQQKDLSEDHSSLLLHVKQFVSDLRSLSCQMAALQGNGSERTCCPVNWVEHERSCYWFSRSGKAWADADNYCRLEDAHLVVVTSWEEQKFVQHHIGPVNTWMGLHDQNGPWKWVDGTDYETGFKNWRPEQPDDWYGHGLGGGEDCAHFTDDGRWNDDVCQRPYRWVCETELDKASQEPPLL
T1 sequence (P07307 1-311): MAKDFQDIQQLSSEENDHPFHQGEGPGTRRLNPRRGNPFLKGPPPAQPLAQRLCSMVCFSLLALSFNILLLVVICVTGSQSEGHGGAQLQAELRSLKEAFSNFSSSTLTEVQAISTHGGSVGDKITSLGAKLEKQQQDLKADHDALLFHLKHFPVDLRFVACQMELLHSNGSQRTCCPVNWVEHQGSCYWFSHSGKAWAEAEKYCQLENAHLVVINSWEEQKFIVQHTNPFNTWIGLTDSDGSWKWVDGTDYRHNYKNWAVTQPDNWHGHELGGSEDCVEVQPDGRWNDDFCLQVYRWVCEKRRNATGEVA
Particulars: higher affinity; cited from earlier work.

Data set [2] concerns TMPRSS6 mRNA. The data set is described as follows: Dose response of TMPRSS6 nucleic acids for inhibition of TMPRSS6 expression in human Hep3B cells. The class given is cell-based. Particulars: 30-0.003 nM nucleic acid (Luciferase 30 and 10 nM) + 1 μg/ml AtuFECT, two days, normalized to PTEN. The method, then: Cells were plated at a cell density of 150,000 cells per 6 well dish. The following day cells were transfected with 1 μg/ml AtuFECT (50:50 formulation of cationic lipid Atufect01 and fusogenic lipid DPhyPE) and different amounts of TMPRSS6 nucleic acids (30; 10; 3; 1; 0.3; 0.1, 0.003 nM, respectively) as depicted by the X-axis of the graph in FIG. 2. For non targeting control samples, cells were transfected with 30 and 10 nM nucleic acid for Luciferase. Two days after the transfection cells were lysed and mRNA levels were determined by q-RT-PCR. TMPRSS6 mRNA levels were normalized to the expression levels of the house keeping gene PTEN. […] Sequences of RNAi molecules are depicted in Table 1.

Data set [3] has as its system TMPRSS6 mRNA. The data set is described as follows: Dose-response of siRNAs against TMPRSS6 in Hep3B cells. The class given is cell-based, human. Particulars: siRNA 100 nM-0.03 nM + 1 μg/ml AtuFECT, two days after transfection, TMPRSS6 mRNA normalized to ApoB, from dose-response curves FIG. 35; for Max inhibition: relative to 100 nM Luciferase-control siRNA. The method, then:
8000 cells per well were plated in 96-well plates. The following day cells were transfected with siRNA in indicated concentrations (100 nM-0.03 nM) and 1 μg/ml AtuFECT. Two days after transfection cells were lysed and TMPRSS6 mRNA levels were determined by q-RT-PCR. TMPRSS6 mRNA levels were normalized to expression levels of the house keeping gene ApoB. Average inhibition and standard deviation of triplicate values relative to cells treated with 100 nM of a non-targeting Luciferase-control siRNA are shown in FIG. 35.

The subject of data set [4] is TMPRSS6 mRNA. Description: Reduction of TMPRSS6 mRNA expression by different siRNAs in Hep3B cells (20 nM, 96-well). Type of data set: cell-based, human. The conditions noted are these: 20 nM siRNA + 1 μg/ml AtuFECT, two days after transfection, TMPRSS6 mRNA normalized to ApoB, relative to untreated cells. The method, then:
8000 cells per well were plated in 96-well plates. The following day cells were transfected with 20 nM siRNA and 1 μg/ml AtuFECT. Two days after transfection cells were lysed and TMPRSS6 mRNA levels were determined by q-RT-PCR. TMPRSS6 mRNA levels were normalized to expression levels of the house keeping gene ApoB. An siRNAs against Luciferase was used as non targeting control.

Oligonucleotides are written 5' to 3', each unit as a sugar letter and its base; * is a phosphorothioate linkage, no mark a phosphodiester; rarer units and linkages stand in square brackets, end groups in braces. Plain capitals give the bases only. m = 2'-O-methyl; f = 2'-fluoro

Regarding `CC(=O)N[C@H]1C(O)O[C@H](CO)[C@H](O)[C@@H]1O` (stereo partly drawn) [N-Acetyl-D-Galactosylamine (GalNAc), 2-(Acetylamino)-2-deoxy-D-galactopyranose], in data set [1], the “Affinity of ASGP-R for GalNAc relative to D-Gal” value is on record as 50 fold.

Turning to “Luciferase nucleic acid: non targeting control nucleic acid for Luciferase, SEQ ID NO 31/32 (chain 1 UCGAAGUAUUCCGCGUACG; chain 2 CGUACGCGGAAUACUUCGA; listed as RNA, chemistry not given here) [reference compound]”, in the data set on TMPRSS6 mRNA [2], the “TMPRSS6 mRNA expression” value is listed as “did not affect TMPRSS6 mRNA levels”.

With “TMPRSS6-hcm9: siRNA, SEQ ID NO 17/18, alternating 2′OMe/2′F; TMP01 = strands TMPJH01A/TMPJH01B, same chemistry (chain 1 AACCAGAAGAAGCAGGUGA; chain 2 UCACCUGCUUCUUCUGGUU; chain 1: sugars from the 5' end mfmfmfmfmfmfmfmfmfm, backbone not given here; chain 2: sugars from the 5' end fmfmfmfmfmfmfmfmfmf, backbone not given here; further chemistry not fully specified)”, the “TMPRSS6 mRNA expression” value in the data set on TMPRSS6 mRNA [2] was “highest reduction of TMPRSS6 mRNA expression”.

As for “TMPRSS6-hcmr-24: siRNA against TMPRSS6, SEQ ID NO 209/210 (chain 1 mCfUmCfAmCfCmUfUmGfAmAfGmGfAmCfAmCfCmU; chain 2 fAmGfGmUfGmUfCmCfUmUfCmAfAmGfGmUfGmAfG)”, in the data set on TMPRSS6 mRNA [3], the IC50 is 0.8 nM and the Max inhibition is listed as 73%. The “kd at 20 nM as shown in FIG. 34” value in the data set on TMPRSS6 mRNA [4] turned out to be 70%.

Regarding “TMPRSS-SR-5: siRNA against TMPRSS6, strands hcTMP-SR5-A/B, SEQ ID NO 141/142 (chain 1 mGfGmUfGmCfUmGfAmGfGmAfCmGfCmCfCmUfGmG; chain 2 fCmCfAmGfGmGfCmGfUmCfCmUfCmAfGmCfAmCfC)”, in the data set on TMPRSS6 mRNA [3], the concentration for half-maximal inhibition (IC50) turned out to be 8.4 nM and the Max inhibition amounted to 100%. The “kd at 20 nM as shown in FIG. 34” value in the data set with TMPRSS6 mRNA [4] is listed as 85%.

Take “TMPRSS-SR-16: siRNA against TMPRSS6, strands hcTMP-SR16-A/B, SEQ ID NO 158 (as printed)/160 (chain 1 CUCAGCACCCCGUACUUCC; chain 2 UCAGCACCCCGUACUUCCC; listed as RNA, chemistry not fully specified)”: in the data set with TMPRSS6 mRNA [3], the 50% inhibitory concentration (IC50) was found to be 8.4 nM and the Max inhibition is listed as 100%. Besides, in the data set with TMPRSS6 mRNA [4], the “kd at 20 nM as shown in FIG. 34” value was determined as 88%.

Take “TMPRSS-SR-21: siRNA against TMPRSS6, SEQ ID NO 167/168 (chain 1 mAfGmCfUmGfGmGfGmAfAmGfUmAfCmGfGmGfGmU; chain 2 fAmCfCmCfCmGfUmAfCmUfUmCfCmCfCmAfGmCfU)”: in the data set on TMPRSS6 mRNA [3], the IC50 worked out at 5.8 nM and the Max inhibition is on record as 100%. For the same compound, in the data set on TMPRSS6 mRNA [4], the “kd at 20 nM as shown in FIG. 34” value stood at 92%.

Take “TMPRSS-SR-27: siRNA against TMPRSS6, SEQ ID NO 177/178 (chain 1 mAfGmUfAmGfUmAfGmCfUmGfGmGfGmAfAmGfUmA; chain 2 fUmAfCmUfUmCfCmCfCmAfGmCfUmAfCmUfAmCfU)”: in the data set on TMPRSS6 mRNA [3], the IC50 was 2.8 nM and the Max inhibition is on record as 94%. For the same compound, in the data set with TMPRSS6 mRNA [4], the “kd at 20 nM as shown in FIG. 34” value is 84%.

For the compound “TMPRSS-hc-16: siRNA against TMPRSS6, SEQ ID NO 195/196 (chain 1 mUfAmUfUmCfCmAfAmAfGmGfGmCfAmGfCmUfGmA; chain 2 fUmCfAmGfCmUfGmCfCmCfUmUfUmGfGmAfAmUfA)”, in the data set on TMPRSS6 mRNA [3], the half-maximal inhibitory concentration (IC50) came out at 7.7 nM and the Max inhibition turned out to be 100%. The “kd at 20 nM as shown in FIG. 34” value in the data set on TMPRSS6 mRNA [4] is 91%.

Turning to “TMPRSS-hc-17: siRNA against TMPRSS6, SEQ ID NO 197/198 (chain 1 AUCUUCUGGGCUUUGGCGG; chain 2 CCGCCAAAGCCCAGAAGAU; chain 1: sugars from the 5' end mfmfmfmfmfmfmfmfmfm, backbone not given here; chain 2: sugars from the 5' end fmfmfmfmfmfmfmfmfmf, backbone not given here)”, in the data set with TMPRSS6 mRNA [3], the half-maximal inhibitory concentration (IC50) is 2.4 nM and the Max inhibition turned out to be 82%. In addition, in the data set on TMPRSS6 mRNA [4], the “kd at 20 nM as shown in FIG. 34” value came to 79%.

For the compound “TMPRSS-hc-18: siRNA against TMPRSS6, SEQ ID NO 199/200 (chain 1 UUUUCUCUUGGAGUCCUCA; chain 2 UGAGGACUCCAAGAGAAAA; chain 1: sugars from the 5' end mfmfmfmfmfmfmfmfmfm, backbone not given here; chain 2: sugars from the 5' end fmfmfmfmfmfmfmfmfmf, backbone not given here)”, in the data set on TMPRSS6 mRNA [3], the half-maximal inhibitory concentration (IC50) was determined as 4.6 nM and the Max inhibition was determined as 95%. Further, the “kd at 20 nM as shown in FIG. 34” value in the data set on TMPRSS6 mRNA [4] worked out at 90%.

Turning to “TMPRSS-hc-19: siRNA against TMPRSS6, SEQ ID NO 201/202 (chain 1 mGfAmAfUmAfGmAfCmGfGmAfGmCfUmGfGmAfGmU; chain 2 fAmCfUmCfCmAfGmCfUmCfCmGfUmCfUmAfUmUfC)”, in the data set on TMPRSS6 mRNA [3], the IC50 was determined as 6.1 nM and the Max inhibition is 100%. In the data set with TMPRSS6 mRNA [4], the “kd at 20 nM as shown in FIG. 34” value is reported as 89%.

For “TMPRSS-hc-22: siRNA against TMPRSS6, SEQ ID NO 205/206 (chain 1 mAfGmAfUmCfCmUfGmGfGmAfGmAfAmGfUmGfGmC; chain 2 fGmCfCmAfCmUfUmCfUmCfCmCfAmGfGmAfUmCfU)”, in the data set on TMPRSS6 mRNA [3], the IC50 was determined as 8.1 nM and the Max inhibition is 99%. Besides, the “kd at 20 nM as shown in FIG. 34” value with TMPRSS6 mRNA [4] came to 73%.

Consider “TMPRSS-hc-23: siRNA against TMPRSS6, SEQ ID NO 207/208 (chain 1 CUGUUCUGGAUCGUCCACU; chain 2 AGUGGACGAUCCAGAACAG; chain 1: sugars from the 5' end mfmfmfmfmfmfmfmfmfm, backbone not given here; chain 2: sugars from the 5' end fmfmfmfmfmfmfmfmfmf, backbone not given here)”, for which, in the data set with TMPRSS6 mRNA [3], the IC50 amounted to 4.6 nM and the Max inhibition turned out to be 83%. The “kd at 20 nM as shown in FIG. 34” value in the data set on TMPRSS6 mRNA [4] was found to be 70%.

Consider “TMPRSS-hcm-25: siRNA against TMPRSS6, SEQ ID NO 211/212 (chain 1 AGUUUCUCUCAUCCAGGCC; chain 2 GGCCUGGAUGAGAGAAACU; chain 1: sugars from the 5' end mfmfmfmfmfmfmfmfmfm, backbone not given here; chain 2: sugars from the 5' end fmfmfmfmfmfmfmfmfmf, backbone not given here)”, for which, in the data set on TMPRSS6 mRNA [3], the IC50 amounted to 4.6 nM and the Max inhibition came out at 87%. Further, the “kd at 20 nM as shown in FIG. 34” value in the data set on TMPRSS6 mRNA [4] is 85%.

Regarding “TMPRSS-hcr-26: siRNA against TMPRSS6, SEQ ID NO 213/214 (chain 1 GUACCCUAGGAAAUACCAG; chain 2 CUGGUAUUUCCUAGGGUAC; chain 1: sugars from the 5' end mfmfmfmfmfmfmfmfmfm, backbone not given here; chain 2: sugars from the 5' end fmfmfmfmfmfmfmfmfmf, backbone not given here)”, in the data set with TMPRSS6 mRNA [3], the concentration for half-maximal inhibition (IC50) is 3.5 nM and the Max inhibition came out at 100%. Moreover, the “kd at 20 nM as shown in FIG. 34” value in the data set on TMPRSS6 mRNA [4] amounted to 98%.

Values taken from patent US20250025488A1, “NUCLEIC ACIDS FOR INHIBITING EXPRESSION OF TMPRSS6 AND IRON CHELATORS” (SILENCE THERAPEUTICS GMBH, priority 2018, published 2025).
